Results published in ChEMBL document CHEMBL1155324, “Synthesis and evaluation of a series of 2,4-diaminopyridine derivatives as potential positron emission tomography tracers for neuropeptide Y Y1 receptors” (Bioorg Med Chem Lett, 2009).
pIC50: −log10 of the molar value.

Assays:
[1] = Octanol-water distribution coefficient log Dat pH 7.4 by water-plug aspiration/injection method combined with HPLC-mass spectrometry
[2] = molecular target: T1, Neuropeptide Y receptor type 1 (Homo sapiens, UniProt P25929); assay: Displacement of [125I]-PYY from human NPYY1 receptor overexpressed in CHO cell membrane after 120 mins by scintillation counting; type: cell membranes
T1 sequence (P25929 whole entry): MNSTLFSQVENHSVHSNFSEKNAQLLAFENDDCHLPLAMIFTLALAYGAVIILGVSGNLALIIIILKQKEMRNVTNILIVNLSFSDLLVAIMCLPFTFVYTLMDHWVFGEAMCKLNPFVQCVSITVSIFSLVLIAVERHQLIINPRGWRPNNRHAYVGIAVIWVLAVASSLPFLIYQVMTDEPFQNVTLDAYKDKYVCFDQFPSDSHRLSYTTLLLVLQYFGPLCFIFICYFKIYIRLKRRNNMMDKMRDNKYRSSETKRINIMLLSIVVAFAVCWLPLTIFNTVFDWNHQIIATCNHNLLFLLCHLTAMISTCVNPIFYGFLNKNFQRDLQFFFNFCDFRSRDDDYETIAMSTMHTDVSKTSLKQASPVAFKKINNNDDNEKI

[3] = Ratio of permeability from basal to apical side to apical to basal side of human KB-3-1 cells by scintillation counting; type: ADME, cell-based
[4] = molecular target: Neuropeptide Y receptor type 4 (Homo sapiens, UniProt P50391); assay: Displacement of [125I]-PYY from human NPYY4 receptor
Sequence of Neuropeptide Y receptor type 4 (P50391 whole entry): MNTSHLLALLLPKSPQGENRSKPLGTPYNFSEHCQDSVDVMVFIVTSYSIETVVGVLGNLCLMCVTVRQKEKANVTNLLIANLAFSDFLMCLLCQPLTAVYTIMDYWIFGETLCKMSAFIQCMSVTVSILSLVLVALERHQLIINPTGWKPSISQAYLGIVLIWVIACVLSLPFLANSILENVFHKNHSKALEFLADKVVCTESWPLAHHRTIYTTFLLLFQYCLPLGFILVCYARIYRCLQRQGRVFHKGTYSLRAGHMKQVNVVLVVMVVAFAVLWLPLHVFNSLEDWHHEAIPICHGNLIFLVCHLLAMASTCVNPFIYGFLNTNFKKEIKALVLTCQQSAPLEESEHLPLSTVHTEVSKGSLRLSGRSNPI

[5] = molecular target: T2, Neuropeptide Y receptor type 5 (Homo sapiens, UniProt Q15761); assay: Displacement of [125I]-PYY from human NPYY5 receptor
T2 sequence (Q15761 whole entry): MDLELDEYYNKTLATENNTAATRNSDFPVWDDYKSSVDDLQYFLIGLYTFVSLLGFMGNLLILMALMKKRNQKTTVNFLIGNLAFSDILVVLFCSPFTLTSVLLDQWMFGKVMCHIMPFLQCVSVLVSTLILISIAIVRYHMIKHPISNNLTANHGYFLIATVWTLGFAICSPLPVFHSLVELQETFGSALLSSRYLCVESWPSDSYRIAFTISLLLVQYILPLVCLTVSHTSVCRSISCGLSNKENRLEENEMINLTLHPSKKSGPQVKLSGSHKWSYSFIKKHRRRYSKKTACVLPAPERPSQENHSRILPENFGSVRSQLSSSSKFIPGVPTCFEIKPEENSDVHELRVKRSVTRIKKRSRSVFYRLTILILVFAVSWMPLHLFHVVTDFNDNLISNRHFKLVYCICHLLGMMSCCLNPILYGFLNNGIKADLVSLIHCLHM

[6] = molecular target: T3, Neuropeptide Y receptor type 2 (Homo sapiens, UniProt P49146); assay: Displacement of [125I]-PYY from human NPYY2 receptor
T3 sequence (P49146 whole entry): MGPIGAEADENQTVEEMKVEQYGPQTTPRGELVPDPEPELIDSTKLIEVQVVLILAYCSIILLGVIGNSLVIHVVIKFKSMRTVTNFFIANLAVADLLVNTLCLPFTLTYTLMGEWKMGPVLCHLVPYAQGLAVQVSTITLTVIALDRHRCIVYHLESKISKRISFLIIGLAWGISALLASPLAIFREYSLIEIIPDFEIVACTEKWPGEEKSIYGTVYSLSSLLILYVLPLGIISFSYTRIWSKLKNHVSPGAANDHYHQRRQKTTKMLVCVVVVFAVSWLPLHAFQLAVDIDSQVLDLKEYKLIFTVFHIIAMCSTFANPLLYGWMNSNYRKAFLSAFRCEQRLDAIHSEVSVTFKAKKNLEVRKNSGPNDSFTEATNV

| logD [1] | pIC50 [2] | efflux ratio [3] | pIC50 [4] | pIC50 [5] | pIC50 [6] | Structure (SMILES) |
| --- | --- | --- | --- | --- | --- | --- |
| 3.1 | 8.82 | – | – | – | – | Cc1nc(SCc2cc(N3CCOCC3)cc(NCc3cccc(F)n3)n2)oc1C |
| 3 | 8.74 | – | – | – | – | Cc1nc(SCc2cc(N3CCOCC3)cc(NCc3cccc(CF)n3)n2)oc1C |
| 3.5 | 9.34 | – | – | – | – | Cc1cccc(CNc2cc(N3CCOCC3)cc(CSc3nc4c(o3)CCCC4)n2)n1 |
| 2.8 | 8.37 | – | – | – | – | COCc1cccc(CNc2cc(N3CCOCC3)cc(CSc3nc(C)c(C)o3)n2)n1 |
| 2.7 | – | 1.8 | < 5.00 | < 5.00 | < 5.00 | Cc1cccc(CNc2cc(N3CCOCC3)cc(CSc3nc(CF)c(C)s3)n2)n1 |
| 3.9 | 7.72 | – | – | – | – | Cc1nc(SCc2cc(N3CCOCC3)cc(NCc3cccc(OCCF)n3)n2)oc1C |
| 2.2 | 8.77 | – | – | – | – | Cc1cccc(CNc2cc(N3CCS(=O)(=O)CC3)cc(CSc3nc(C)c(C)o3)n2)n1 |
| 2.8 | 9.16 | – | – | – | – | Cc1cccc(CNc2cc(N3CCOCC3)cc(CSc3nc(C)c(C)o3)n2)n1 |
| 2.9 | 9.57 | – | – | – | – | Cc1cccc(CNc2cc(N3CCOCC3)cc(CSc3nc(C)c(C)s3)n2)n1 |
| 2.6 | 8.00 | – | – | – | – | Cc1nc(SCc2cc(N3CCOCC3)cc(NCc3cccc(COCCF)n3)n2)oc1C |
| 3.5 | – | – | – | – | – | Cc1nc(SCc2cc(N3CCSCC3)cc(NCc3cccc(F)n3)n2)oc1C |
| 3.1 | 8.28 | – | – | – | – | Cc1nc(SCc2cc(N3CCOCC3)cc(NCc3ccnc(F)c3)n2)oc1C |
| – | – | – | < 5.00 | < 5.00 | < 5.00 | CCc1sc(SCc2cc(N3CCOCC3)cc(NCc3cccc(C)n3)n2)nc1CF |
| 3 | 8.11 | – | – | – | – | Cc1nc(SCc2cc(N3CCOCC3)cc(NCc3cccnc3F)n2)oc1C |
| 3.1 | 9.41 | – | – | – | – | CCc1oc(SCc2cc(N3CCOCC3)cc(NCc3cccc(C)n3)n2)nc1C |
| 2.3 | 8.10 | – | – | – | – | Cc1nc(SCc2cc(N3CCS(=O)(=O)CC3)cc(NCc3cccc(F)n3)n2)oc1C |
| 3.6 | 9.80 | – | – | – | – | Cc1cccc(CNc2cc(N3CCSCC3)cc(CSc3nc(C)c(C)o3)n2)n1 |
| 2.3 | 9.25 | – | – | – | – | Cc1cccc(CNc2cc(N3CCOCC3)cc(CSc3nc(C)c(CF)s3)n2)n1 |

| Structure (SMILES) | logD [1] | pIC50 [2] | efflux ratio [3] | pIC50 [4] | pIC50 [5] | pIC50 [6] |
| --- | --- | --- | --- | --- | --- | --- |
| Cc1nc(SCc2cc(N3CCOCC3)cc(NCc3ccc(F)nc3)n2)oc1C | 3 | 7.68 | – | – | – | – |
